# Reference: PubChem BioAssay (NCI)
#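 How tested: cells in 96-well plates exposed to compound for 48 hours at five concentrations. Here, GI50 denotes the concentration required for 50% inhibition of growth. Definition used: TGI = concentration required for complete inhibition of growth.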
# Test system: HOP-92 NSCLC
# Assay: growth of human tumour cells (NCI), 48 h
SMILES,TGI,GI50
COc1cc(-c2cc(-c3cc([N+](=O)[O-])c(/C=N/NC(=O)c4ccncc4)o3)ccc2OC)ccc1C,> 100 µM,–
Fc1cccc(C2SCc3nc4ccccc4n32)c1F (centres undefined),85 µM,–
O=C(N/N=C/c1cc(Cl)cc(Cl)c1O)c1ccccc1O,19.7 µM,3.69 µM

# Test system: KM20L2 colon
# Assay: growth of human tumour cells (NCI), 48 h
SMILES,TGI,GI50
Cn1c2ccccc2n2c(=O)c3c(c(C#N)c12)CCCC3,> 100 µM,–
Cc1cc(N(CCC#N)CCC#N)ccc1/C=C1N=C(/C=C\c2ccccc2)N(c2ccc(Cl)cc2)C\1=O,> 31.9 µM,–
O=C([CH-]C(=O)c1ccccc1)c1ccccc1.O=C([CH-]C(=O)c1ccccc1)c1ccccc1.[OH-].[OH-].[Ti+4],> 100 µM,> 100 µM
COc1cc(-c2cc(-c3cc([N+](=O)[O-])c(/C=N/NC(=O)c4ccncc4)o3)ccc2OC)ccc1C,> 100 µM,–
Fc1cccc(C2SCc3nc4ccccc4n32)c1F (centres undefined),> 100 µM,–
O=C(N/N=C/c1cc(Cl)cc(Cl)c1O)c1ccccc1O,–,4.85 µM

# Test system: CAKI-1 renal
# Assay: growth of human tumour cells (NCI), 48 h
SMILES,TGI,GI50
Cn1c2ccccc2n2c(=O)c3c(c(C#N)c12)CCCC3,> 100 µM,–
Cc1cc(N(CCC#N)CCC#N)ccc1/C=C1N=C(/C=C\c2ccccc2)N(c2ccc(Cl)cc2)C\1=O,> 100 µM,–
O=C([CH-]C(=O)c1ccccc1)c1ccccc1.O=C([CH-]C(=O)c1ccccc1)c1ccccc1.[OH-].[OH-].[Ti+4],> 100 µM,85.3 µM
COc1cc(-c2cc(-c3cc([N+](=O)[O-])c(/C=N/NC(=O)c4ccncc4)o3)ccc2OC)ccc1C,> 100 µM,–
Fc1cccc(C2SCc3nc4ccccc4n32)c1F (centres undefined),> 100 µM,–

# Test system: KM12 colon
# Assay: growth of human tumour cells (NCI), 48 h
SMILES,TGI,GI50
Cn1c2ccccc2n2c(=O)c3c(c(C#N)c12)CCCC3,> 100 µM,–
Cc1cc(N(CCC#N)CCC#N)ccc1/C=C1N=C(/C=C\c2ccccc2)N(c2ccc(Cl)cc2)C\1=O,> 100 µM,–
O=C([CH-]C(=O)c1ccccc1)c1ccccc1.O=C([CH-]C(=O)c1ccccc1)c1ccccc1.[OH-].[OH-].[Ti+4],> 100 µM,> 100 µM
Fc1cccc(C2SCc3nc4ccccc4n32)c1F (centres undefined),> 100 µM,–
O=C(N/N=C/c1cc(Cl)cc(Cl)c1O)c1ccccc1O,34.7 µM,3.72 µM

# Test system: SR leukemia
# Assay: growth of human tumour cells (NCI), 48 h
row,SMILES,TGI
1,Cn1c2ccccc2n2c(=O)c3c(c(C#N)c12)CCCC3,> 100 µM
2,Cc1cc(N(CCC#N)CCC#N)ccc1/C=C1N=C(/C=C\c2ccccc2)N(c2ccc(Cl)cc2)C\1=O,> 100 µM
3,Fc1cccc(C2SCc3nc4ccccc4n32)c1F (centres undefined),> 100 µM
4,O=C(N/N=C/c1cc(Cl)cc(Cl)c1O)c1ccccc1O,> 100 µM

# Test system: UACC-257 melanoma
# Assay: growth of human tumour cells (NCI), 48 h
SMILES,TGI,GI50
Cn1c2ccccc2n2c(=O)c3c(c(C#N)c12)CCCC3,> 100 µM,–
Cc1cc(N(CCC#N)CCC#N)ccc1/C=C1N=C(/C=C\c2ccccc2)N(c2ccc(Cl)cc2)C\1=O,> 100 µM,–
O=C([CH-]C(=O)c1ccccc1)c1ccccc1.O=C([CH-]C(=O)c1ccccc1)c1ccccc1.[OH-].[OH-].[Ti+4],> 100 µM,> 100 µM
COc1cc(-c2cc(-c3cc([N+](=O)[O-])c(/C=N/NC(=O)c4ccncc4)o3)ccc2OC)ccc1C,> 100 µM,–
Fc1cccc(C2SCc3nc4ccccc4n32)c1F (centres undefined),> 100 µM,–
O=C(N/N=C/c1cc(Cl)cc(Cl)c1O)c1ccccc1O,14.6 µM,–

# Test system: HOP-62 NSCLC
# Assay: growth of human tumour cells (NCI), 48 h
SMILES,TGI,GI50
Cn1c2ccccc2n2c(=O)c3c(c(C#N)c12)CCCC3,> 100 µM,–
Cc1cc(N(CCC#N)CCC#N)ccc1/C=C1N=C(/C=C\c2ccccc2)N(c2ccc(Cl)cc2)C\1=O,> 63.5 µM,–
O=C([CH-]C(=O)c1ccccc1)c1ccccc1.O=C([CH-]C(=O)c1ccccc1)c1ccccc1.[OH-].[OH-].[Ti+4],> 100 µM,27.1 µM
COc1cc(-c2cc(-c3cc([N+](=O)[O-])c(/C=N/NC(=O)c4ccncc4)o3)ccc2OC)ccc1C,> 100 µM,–
Fc1cccc(C2SCc3nc4ccccc4n32)c1F (centres undefined),> 100 µM,–

# Test system: SF-268 CNS
# Assay: growth of human tumour cells (NCI), 48 h
SMILES,TGI,GI50
Cn1c2ccccc2n2c(=O)c3c(c(C#N)c12)CCCC3,> 100 µM,–
Cc1cc(N(CCC#N)CCC#N)ccc1/C=C1N=C(/C=C\c2ccccc2)N(c2ccc(Cl)cc2)C\1=O,> 100 µM,–
O=C([CH-]C(=O)c1ccccc1)c1ccccc1.O=C([CH-]C(=O)c1ccccc1)c1ccccc1.[OH-].[OH-].[Ti+4],> 100 µM,92.5 µM
COc1cc(-c2cc(-c3cc([N+](=O)[O-])c(/C=N/NC(=O)c4ccncc4)o3)ccc2OC)ccc1C,> 100 µM,–
Fc1cccc(C2SCc3nc4ccccc4n32)c1F (centres undefined),> 100 µM,–
O=C(N/N=C/c1cc(Cl)cc(Cl)c1O)c1ccccc1O,30.8 µM,–

# Test system: DLD-1 colon
# Assay: growth of human tumour cells (NCI), 48 h
row,SMILES,TGI
1,Cn1c2ccccc2n2c(=O)c3c(c(C#N)c12)CCCC3,> 100 µM
2,Cc1cc(N(CCC#N)CCC#N)ccc1/C=C1N=C(/C=C\c2ccccc2)N(c2ccc(Cl)cc2)C\1=O,> 100 µM
3,COc1cc(-c2cc(-c3cc([N+](=O)[O-])c(/C=N/NC(=O)c4ccncc4)o3)ccc2OC)ccc1C,> 100 µM
4,Fc1cccc(C2SCc3nc4ccccc4n32)c1F (centres undefined),> 100 µM

# Test system: SK-MEL-5 melanoma
# Assay: growth of human tumour cells (NCI), 48 h
SMILES,TGI,GI50
Cn1c2ccccc2n2c(=O)c3c(c(C#N)c12)CCCC3,> 100 µM,–
Cc1cc(N(CCC#N)CCC#N)ccc1/C=C1N=C(/C=C\c2ccccc2)N(c2ccc(Cl)cc2)C\1=O,17.5 µM,–
O=C([CH-]C(=O)c1ccccc1)c1ccccc1.O=C([CH-]C(=O)c1ccccc1)c1ccccc1.[OH-].[OH-].[Ti+4],> 100 µM,31.2 µM
Fc1cccc(C2SCc3nc4ccccc4n32)c1F (centres undefined),53.2 µM,–
O=C(N/N=C/c1cc(Cl)cc(Cl)c1O)c1ccccc1O,5.38 µM,–

# Test system: T-47D breast
# Assay: growth of human tumour cells (NCI), 48 h
row,SMILES,TGI
1,Cc1cc(N(CCC#N)CCC#N)ccc1/C=C1N=C(/C=C\c2ccccc2)N(c2ccc(Cl)cc2)C\1=O,> 100 µM

# Test system: HCT-15 colon
# Assay: growth of human tumour cells (NCI), 48 h
SMILES,TGI,GI50
Cn1c2ccccc2n2c(=O)c3c(c(C#N)c12)CCCC3,> 100 µM,–
Cc1cc(N(CCC#N)CCC#N)ccc1/C=C1N=C(/C=C\c2ccccc2)N(c2ccc(Cl)cc2)C\1=O,> 100 µM,–
O=C([CH-]C(=O)c1ccccc1)c1ccccc1.O=C([CH-]C(=O)c1ccccc1)c1ccccc1.[OH-].[OH-].[Ti+4],> 100 µM,> 100 µM
Fc1cccc(C2SCc3nc4ccccc4n32)c1F (centres undefined),> 100 µM,–
O=C(N/N=C/c1cc(Cl)cc(Cl)c1O)c1ccccc1O,15.7 µM,–

# Test system: RXF-631 renal
# Assay: growth of human tumour cells (NCI), 48 h
row,SMILES,TGI
1,COc1cc(-c2cc(-c3cc([N+](=O)[O-])c(/C=N/NC(=O)c4ccncc4)o3)ccc2OC)ccc1C,> 100 µM
2,Fc1cccc(C2SCc3nc4ccccc4n32)c1F (centres undefined),36 µM

# Test system: RPMI-8226 leukemia
# Assay: growth of human tumour cells (NCI), 48 h
SMILES,TGI,GI50
Cn1c2ccccc2n2c(=O)c3c(c(C#N)c12)CCCC3,> 100 µM,–
Cc1cc(N(CCC#N)CCC#N)ccc1/C=C1N=C(/C=C\c2ccccc2)N(c2ccc(Cl)cc2)C\1=O,> 100 µM,–
O=C([CH-]C(=O)c1ccccc1)c1ccccc1.O=C([CH-]C(=O)c1ccccc1)c1ccccc1.[OH-].[OH-].[Ti+4],> 100 µM,41.3 µM
COc1cc(-c2cc(-c3cc([N+](=O)[O-])c(/C=N/NC(=O)c4ccncc4)o3)ccc2OC)ccc1C,> 100 µM,–
Fc1cccc(C2SCc3nc4ccccc4n32)c1F (centres undefined),> 100 µM,–

# Test system: COLO 205 colon
# Assay: growth of human tumour cells (NCI), 48 h
SMILES,TGI,GI50
Cn1c2ccccc2n2c(=O)c3c(c(C#N)c12)CCCC3,> 100 µM,–
Cc1cc(N(CCC#N)CCC#N)ccc1/C=C1N=C(/C=C\c2ccccc2)N(c2ccc(Cl)cc2)C\1=O,5.06 µM,–
O=C([CH-]C(=O)c1ccccc1)c1ccccc1.O=C([CH-]C(=O)c1ccccc1)c1ccccc1.[OH-].[OH-].[Ti+4],> 100 µM,> 100 µM
COc1cc(-c2cc(-c3cc([N+](=O)[O-])c(/C=N/NC(=O)c4ccncc4)o3)ccc2OC)ccc1C,> 100 µM,–
Fc1cccc(C2SCc3nc4ccccc4n32)c1F (centres undefined),> 100 µM,–
O=C(N/N=C/c1cc(Cl)cc(Cl)c1O)c1ccccc1O,> 100 µM,11.2 µM

# Test system: EKVX NSCLC
# Assay: growth of human tumour cells (NCI), 48 h
SMILES,TGI,GI50
Cn1c2ccccc2n2c(=O)c3c(c(C#N)c12)CCCC3,> 100 µM,–
Cc1cc(N(CCC#N)CCC#N)ccc1/C=C1N=C(/C=C\c2ccccc2)N(c2ccc(Cl)cc2)C\1=O,> 100 µM,–
O=C([CH-]C(=O)c1ccccc1)c1ccccc1.O=C([CH-]C(=O)c1ccccc1)c1ccccc1.[OH-].[OH-].[Ti+4],> 100 µM,94.9 µM
COc1cc(-c2cc(-c3cc([N+](=O)[O-])c(/C=N/NC(=O)c4ccncc4)o3)ccc2OC)ccc1C,> 100 µM,–
Fc1cccc(C2SCc3nc4ccccc4n32)c1F (centres undefined),> 100 µM,–
O=C(N/N=C/c1cc(Cl)cc(Cl)c1O)c1ccccc1O,> 100 µM,1.71 µM
